Biological target: T1, Cbl-b (Homo sapiens, UniProt Q13191)
T1 construct: Cbl-b-HiBit KI Jurkat Cells were purchased from Promega; host or cells: Cbl-b-HiBiT knock-in Jurkat cells
Assay: Cbl-b Degradation Method B (Nano-Glo HiBiT lytic detection)
Format: cell-based
Conditions: Cbl-b-HiBit KI Jurkat Cells, incubated at least 6-24 hours; for DC50: half maximal degradation, read-out: Cbl-b Degredation Method B IC50; for Dmax: maximum degradation observed, read-out: Cbl-b Degredation Method B Dmax (%)
In short: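 Cbl-b-HiBiT knock-in Jurkat cells (20,000/well) were treated after ~24 h plating with an 11-point 1:3 series for 6-24 h at 37° C. Remaining Cbl-b measured by Nano-Glo HiBiT lytic luminescence. DC50 and Dmax expressed as % of control.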

T1 sequence (Q13191 whole entry): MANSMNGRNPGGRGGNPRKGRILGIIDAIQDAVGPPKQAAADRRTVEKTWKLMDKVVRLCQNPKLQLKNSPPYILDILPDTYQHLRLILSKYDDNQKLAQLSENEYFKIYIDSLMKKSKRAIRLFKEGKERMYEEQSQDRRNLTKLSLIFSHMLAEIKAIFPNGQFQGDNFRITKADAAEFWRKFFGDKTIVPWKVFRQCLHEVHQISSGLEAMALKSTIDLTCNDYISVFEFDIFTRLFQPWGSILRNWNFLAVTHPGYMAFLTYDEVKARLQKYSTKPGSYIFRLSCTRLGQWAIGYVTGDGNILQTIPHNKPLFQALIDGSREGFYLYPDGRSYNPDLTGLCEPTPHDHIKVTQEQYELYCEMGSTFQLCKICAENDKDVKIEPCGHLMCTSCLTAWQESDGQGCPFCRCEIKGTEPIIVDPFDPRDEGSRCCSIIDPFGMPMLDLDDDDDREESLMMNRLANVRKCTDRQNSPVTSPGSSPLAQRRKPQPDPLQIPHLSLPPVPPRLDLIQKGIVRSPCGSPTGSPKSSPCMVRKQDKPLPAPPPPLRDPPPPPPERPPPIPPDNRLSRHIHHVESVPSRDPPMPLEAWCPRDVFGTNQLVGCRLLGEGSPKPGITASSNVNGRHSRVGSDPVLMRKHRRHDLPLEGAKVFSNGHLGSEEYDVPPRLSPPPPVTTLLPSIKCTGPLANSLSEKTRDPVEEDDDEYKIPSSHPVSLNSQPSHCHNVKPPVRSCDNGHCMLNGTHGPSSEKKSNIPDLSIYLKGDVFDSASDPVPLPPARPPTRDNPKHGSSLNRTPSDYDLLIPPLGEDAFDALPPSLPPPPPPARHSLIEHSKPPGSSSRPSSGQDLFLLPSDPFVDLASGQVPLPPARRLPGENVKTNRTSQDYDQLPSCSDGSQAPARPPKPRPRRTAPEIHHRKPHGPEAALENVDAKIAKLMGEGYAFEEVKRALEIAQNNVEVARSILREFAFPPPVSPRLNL

SMILES: Cn1cnnc1C[C@]1(c2cccc(N3Cc4c(cc(CN5CCN(C[C@H]6CC[C@H](OC7CCN(c8ccc(F)c(C(=O)NC9CCC(=O)NC9=O)c8)CC7)CC6)CC5)cc4C(F)(F)F)C3=O)c2)C[C@H](C#N)C1 (stereo partly drawn) [Example 202, N-(2,6-dioxopiperidin-3-yl)-2-fluoro-5-(4-{[(1r,4r)-4-({4-[(3-oxo-2-{3-[(1r,3r)-3-cyano-1-[(4-methyl-4H-1,2,4-triazol-3-yl)methyl]cyclobutyl]phenyl}-7-(trifluoromethyl)-2,3-dihydro-1H-isoindol-5-yl)methyl]piperazin-1-yl}methyl)cyclohexyl]oxy}piperidin-1-yl)benzamide]
- DC50: > 500 nM

SMILES: Cn1cnnc1C[C@]1(c2cccc(N3Cc4c(cc(CN5CCN(C[C@H]6CC[C@H](OC7CCN(c8ccc(C9CCC(=O)NC9=O)cc8)CC7)CC6)CC5)cc4C(F)(F)F)C3=O)c2)C[C@H](C#N)C1 (stereo partly drawn) [Example 206, (1r,3r)-3-[(4-methyl-4H-1,2,4-triazol-3-yl)methyl]-3-(3-{1-oxo-6-[(4-{[(1r,4r)-4-({1-[4-(2,6-dioxopiperidin-3-yl)phenyl]piperidin-4-yl}oxy)cyclohexyl]methyl}piperazin-1-yl)methyl]-4-(trifluoromethyl)-2,3-dihydro-1H-isoindol-2-yl}phenyl)cyclobutane-1-carbonitrile]
- DC50: > 500 nM

SMILES: Cn1cnnc1CC1(c2cccc(-n3cc4ccc(CN5CCN(C[C@H]6CC[C@H](OC7CCN(c8ccc9c(c8F)CN(C8CCC(=O)NC8=O)C9=O)CC7)CC6)CC5)cc4n3)c2)COC1 (stereo partly drawn) [Example 207, 3-[4-fluoro-1-oxo-5-(4-{[(1r,4r)-4-[(4-{[2-(3-{3-[(4-methyl-4H-1,2,4-triazol-3-yl)methyl]oxetan-3-yl}phenyl)-2H-indazol-6-yl]methyl}piperazin-1-yl)methyl]cyclohexyl]oxy}piperidin-1-yl)-2,3-dihydro-1H-isoindol-2-yl]piperidine-2,6-dione]
- DC50: > 500 nM

SMILES: Cn1cnnc1C[C@]1(c2cccc(N3Cc4c(cc(CN5CCN(C[C@H]6CC[C@H](OC7CCN(c8ccc(C9CCC(=O)NC9=O)cn8)CC7)CC6)CC5)cc4C(F)(F)F)C3=O)c2)C[C@H](C#N)C1 (stereo partly drawn) [Example 210, (1r,3r)-3-[(4-methyl-4H-1,2,4-triazol-3-yl)methyl]-3-(3-{1-oxo-6-[(4-{[(1r,4r)-4-({1-[5-(2,6-dioxopiperidin-3-yl)pyridin-2-yl]piperidin-4-yl}oxy)cyclohexyl]methyl}piperazin-1-yl)methyl]-4-(trifluoromethyl)-2,3-dihydro-1H-isoindol-2-yl}phenyl)cyclobutane-1-carbonitrile]
- DC50: > 500 nM

SMILES: Cn1cnnc1C[C@]1(c2cccc(N3Cc4c(cc(CN5CCN(C[C@H]6CC[C@H](OC7CCN(c8ccc(C9CCC(=O)NC9=O)nc8)CC7)CC6)CC5)cc4C(F)(F)F)C3=O)c2)C[C@H](C#N)C1 (stereo partly drawn) [Example 213, (1r,3r)-3-[(4-methyl-4H-1,2,4-triazol-3-yl)methyl]-3-(3-{1-oxo-6-[(4-{[(1r,4r)-4-({1-[6-(2,6-dioxopiperidin-3-yl)pyridin-3-yl]piperidin-4-yl}oxy)cyclohexyl]methyl}piperazin-1-yl)methyl]-4-(trifluoromethyl)-2,3-dihydro-1H-isoindol-2-yl}phenyl)cyclobutane-1-carbonitrile]
- DC50: > 500 nM

SMILES: CC1c2nc(N3CCC(O[C@H]4CC[C@H](CN5CCN(Cc6cc(C(F)(F)F)c7cn(-c8cccc(C9(Cc%10nncn%10C)COC9)c8)nc7c6)CC5)CC4)CC3)ccc2C(=O)N1C1CCC(=O)NC1=O (stereo partly drawn) [Example 216, 3-[7-methyl-5-oxo-2-(4-{[(1r,4r)-4-[(4-{[2-(3-{3-[(4-methyl-4H-1,2,4-triazol-3-yl)methyl]oxetan-3-yl}phenyl)-4-(trifluoromethyl)-2H-indazol-6-yl]methyl}piperazin-1-yl)methyl]cyclohexyl]oxy}piperidin-1-yl)-5H,6H,7H-pyrrolo[3,4-b]pyridin-6-yl]piperidine-2,6-dione]
- DC50: < 5 nM
- Dmax: < 35%

SMILES: CC1c2nc(N3CCC(O[C@H]4CC[C@@H](CN5C[C@@H]6C[C@H]5CN6Cc5cc6c(c(C(F)(F)F)c5)CN(c5cccc(C7(Cc8nncn8C)CC7)c5)C6=O)CC4)CC3)ccc2C(=O)N1C1CCC(=O)NC1=O (stereo partly drawn) [Example 218, 3-[7-methyl-5-oxo-2-(4-{[(1r,4r)-4-{[(1S,4S)-5-{[2-(3-{1-[(4-methyl-4H-1,2,4-triazol-3-yl)methyl]cyclopropyl}phenyl)-3-oxo-7-(trifluoromethyl)-2,3-dihydro-1H-isoindol-5-yl]methyl}-2,5-diazabicyclo[2.2.1]heptan-2-yl]methyl}cyclohexyl]oxy}piperidin-1-yl)-5H,6H,7H-pyrrolo[3,4-b]pyridin-6-yl]piperidine-2,6-dione]
- DC50: 5 to 50 nM
- Dmax: 35 to 70%

SMILES: CC1c2nc(N3CCC(O[C@H]4CC[C@H](CN5C[C@H]6C[C@@H]5CN6Cc5cc6c(c(C(F)(F)F)c5)CN(c5cccc(C7(Cc8nncn8C)CC7)c5)C6=O)CC4)CC3)ccc2C(=O)N1C1CCC(=O)NC1=O (stereo partly drawn) [Example 222, 3-[7-methyl-5-oxo-2-(4-{[(1r,4r)-4-{[(1R,4R)-5-{[2-(3-{1-[(4-methyl-4H-1,2,4-triazol-3-yl)methyl]cyclopropyl}phenyl)-3-oxo-7-(trifluoromethyl)-2,3-dihydro-1H-isoindol-5-yl]methyl}-2,5-diazabicyclo[2.2.1]heptan-2-yl]methyl}cyclohexyl]oxy}piperidin-1-yl)-5H,6H,7H-pyrrolo[3,4-b]pyridin-6-yl]piperidine-2,6-dione]
- DC50: < 5 nM
- Dmax: 35 to 70%

SMILES: CC1c2nc(N3CCC(O[C@H]4CC[C@H](CN5C[C@H]6C[C@@H]5CN6Cc5cc6c(c(C(F)(F)F)c5)CN(c5cccc(C7(Cc8nncn8C)CCC7)c5)C6=O)CC4)CC3)ccc2C(=O)N1C1CCC(=O)NC1=O (stereo partly drawn) [Example 225, 3-[7-methyl-5-oxo-2-(4-{[(1r,4r)-4-{[(1R,4R)-5-{[2-(3-{1-[(4-methyl-4H-1,2,4-triazol-3-yl)methyl]cyclobutyl}phenyl)-3-oxo-7-(trifluoromethyl)-2,3-dihydro-1H-isoindol-5-yl]methyl}-2,5-diazabicyclo[2.2.1]heptan-2-yl]methyl}cyclohexyl]oxy}piperidin-1-yl)-5H,6H,7H-pyrrolo[3,4-b]pyridin-6-yl]piperidine-2,6-dione]
- DC50: < 5 nM
- Dmax: 35 to 70%

SMILES: Cn1cnnc1C[C@]1(c2cccc(N3Cc4c(cc(CN5CCN(C[C@H]6CC[C@H](OC7CCN(c8ccc9c(ccn9C9CCC(=O)NC9=O)c8)CC7)CC6)CC5)cc4C(F)(F)F)C3=O)c2)C[C@H](C#N)C1 (stereo partly drawn) [Example 226, (1r,3r)-3-[(4-methyl-4H-1,2,4-triazol-3-yl)methyl]-3-(3-{1-oxo-6-[(4-{[(1r,4r)-4-({1-[1-(2,6-dioxopiperidin-3-yl)-1H-indol-5-yl]piperidin-4-yl}oxy)cyclohexyl]methyl}piperazin-1-yl)methyl]-4-(trifluoromethyl)-2,3-dihydro-1H-isoindol-2-yl}phenyl)cyclobutane-1-carbonitrile]
- DC50: < 5 nM
- Dmax: 35 to 70%

SMILES: Cc1cc(N2CCC(O[C@H]3CC[C@H](CN4CCN(Cc5cc6c(c(C(F)(F)F)c5)CN(c5cccc(C7(Cc8nncn8C)CC7)c5)C6=O)C(C)(C)C4)CC3)CC2)c(F)c2c1C(=O)N(C1CCC(=O)NC1=O)C2 (stereo partly drawn) [Example 227, 3-[4-fluoro-7-methyl-1-oxo-5-(4-{[(1r,4r)-4-[(3,3-dimethyl-4-{[2-(3-{1-[(4-methyl-4H-1,2,4-triazol-3-yl)methyl]cyclopropyl}phenyl)-3-oxo-7-(trifluoromethyl)-2,3-dihydro-1H-isoindol-5-yl]methyl}piperazin-1-yl)methyl]cyclohexyl]oxy}piperidin-1-yl)-2,3-dihydro-1H-isoindol-2-yl]piperidine-2,6-dione]
- DC50: < 5 nM
- Dmax: > 70%

SMILES: CC(C)n1c(=O)n(C2CCC(=O)NC2=O)c2ccc(N3CCC(O[C@H]4CC[C@H](CN5CCN(Cc6cc7c(c(C(F)(F)F)c6)CN(c6cccc([C@]8(Cc9nncn9C)C[C@@H](C#N)C8)c6)C7=O)CC5)CC4)CC3)cc21 (stereo partly drawn) [Example 228, (1r,3r)-3-[(4-methyl-4H-1,2,4-triazol-3-yl)methyl]-3-(3-{1-oxo-6-[(4-{[(1r,4r)-4-({1-[1-(2,6-dioxopiperidin-3-yl)-2-oxo-3-(propan-2-yl)-2,3-dihydro-1H-1,3-benzodiazol-5-yl]piperidin-4-yl}oxy)cyclohexyl]methyl}piperazin-1-yl)methyl]-4-(trifluoromethyl)-2,3-dihydro-1H-isoindol-2-yl}phenyl)cyclobutane-1-carbonitrile]
- DC50: < 5 nM
- Dmax: > 70%

SMILES: CC(C)n1c(=O)n(C2CCC(=O)NC2=O)c2ccc(N3CCC(O[C@H]4CC[C@H](CN5CCN(Cc6cc7c(c(C(F)(F)F)c6)CN(c6cccc([C@]8(Cc9nncn9C)C[C@@H](C#N)C8)c6)C7=O)C(C)(C)C5)CC4)CC3)cc21 (stereo partly drawn) [Example 229, (1r,3r)-3-(3-{6-[(2,2-dimethyl-4-{[(1r,4r)-4-({1-[1-(2,6-dioxopiperidin-3-yl)-2-oxo-3-(propan-2-yl)-2,3-dihydro-1H-1,3-benzodiazol-5-yl]piperidin-4-yl}oxy)cyclohexyl]methyl}piperazin-1-yl)methyl]-1-oxo-4-(trifluoromethyl)-2,3-dihydro-1H-isoindol-2-yl}phenyl)-3-[(4-methyl-4H-1,2,4-triazol-3-yl)methyl]cyclobutane-1-carbonitrile]
- DC50: < 5 nM
- Dmax: > 70%

Reference: US20260184710A1, “CASITAS B-LINEAGE LYMPHOMA PROTOONCOGENE B (CBL-B) DEGRADING COMPOUNDS AND ASSOCIATED METHODS OF USE” (Arvinas Operations, Inc., priority 2022, published 2026)
